# What was measured:
# [1] = tested on: HUVEC, A498, A548, SF268, SKOV3, and DU145; assay: Multivariate quantitative phenotype dose response by image analysis (tubulin feature); type: cell-based, human
# Excerpt: As indicated, phenotypic vectors for given stimuli and level combinations may include multivariate information taken from different cell lines. However, this need not be the case, as all the multivariate data of interest may be obtained from a single cell line. Generally, a researcher will chose one or a range of cell lines that are relevant to the area of interest. For example, if the researcher focuses on oncology applications, the cell lines chosen may include different types of cancers and possibly other cells lines that allow one to identify typical side effects of anti cancer drugs. In one specific embodiment pertaining to oncology, six different cell lines are considered. These include HUVEC (human umbilical vein endothelial cells), A498, A548, SF268, SKOV3, and DU145.
# In a more specific embodiment, the parameter set for each dose/compound point in a response path includes parameters derived from DNA markers, Golgi markers, and tubulin markers. […] The size of the nuclei as derived from a DNA marker. […]
# The data points are presented within the first three principal components obtained for the entire data set. […] The specific features and cell lines used to construct the quantitative phenotypes shown as points in the plot are set forth above in the “Multivariate Phenotypic Data from Images” and “Selecting Experiments for Providing Response Paths” sections. […]
# microtubule assembly = details: review of the literature; cited from earlier work
structure (smiles),measurement,setting,value
C=C1[C@@H](C)[C@H]2[C@H](Cc3ccccc3)NC(=O)[C@]23OC(=O)/C=C/C(=O)CCC[C@@H](C)C/C=C/[C@H]3[C@@H]1O [Cytochalasin A],change in tubulin biological features with increasing concentration,"[1]; all cell lines, eight concentrations",lack of an increase in the tubulin features
same,affinity of the microtubule side effect compared with affinity for actin,[1]; inferred from common PCA trajectory at lower concentrations,lower affinity
same,effect on microtubule assembly,microtubule assembly,interferes with microtubule assembly by reacting with sulfhydryl groups
